# In ChEMBL document CHEMBL1142742, “Synthesis and in vitro and in vivo structure-activity relationships of novel antifungal triazoles for dermatology” (2005):
# How the values were obtained:
# Format in all cases: functional
# Cavia porcellus [1] = organism: Cavia porcellus; assay: Effective dose was measured in guinea pig infected with Microsporum canis on 21st day
# Candida = assay: Minimum inhibitory concentration against Candida species (n=24)
# Mus musculus = organism: Mus musculus; assay: Effective dose was measured in mice infected with Trichophyton mentagrophytes
# Trichophyton rubrum = assay: Minimum inhibitory concentration against Trichophyton rubrum (n=14)
# Trichophyton tonsurans = assay: Minimum inhibitory concentration against Trichophyton tonsurans (n=18)
# Aspergillus sp. = assay: Minimum inhibitory concentration against Aspergillus species (n=8)
# [2] = Minimum inhibitory concentration against Microsporum species (n=38)
# Trichophyton benhamiae = assay: Minimum inhibitory concentration against Trichophyton mentagrophytes (n=20)
# Epidermophyton floccosum = assay: Minimum inhibitory concentration against Epidermophyton floccosum (n=12)
# Cavia porcellus [3] = organism: Cavia porcellus; assay: Effective dose was measured in guinea pig infected with Microsporum canis on 14th day
# Cavia porcellus [4] = organism: Cavia porcellus; assay: Effective dose was measured in guinea pig infected with Microsporum canis on 7th day
# [5] = Minimum inhibitory concentration against Trichophyton species (n=80)
# [6] = Cavia porcellus, read-out: ED50
# [7] = Trichophyton rubrum, read-out: MIC50
# [8] = Trichophyton rubrum, read-out: MIC90
# [9] = Trichophyton tonsurans, read-out: MIC50
# [10] = Trichophyton tonsurans, read-out: MIC90
# [11] = Aspergillus sp., read-out: MIC50
# [12] = Aspergillus sp., read-out: MIC90
# [13] = Trichophyton benhamiae, read-out: MIC50
# [14] = Trichophyton benhamiae, read-out: MIC90
# [15] = Epidermophyton floccosum, read-out: MIC50
# [16] = Epidermophyton floccosum, read-out: MIC90
SMILES,ED50 (Cavia porcellus [1]; [6]),MIC90 (Candida),"MIC50 (Candida; Candida, read-out: MIC50)","ED50 (Mus musculus; Mus musculus, read-out: ED50)",MIC50 (Trichophyton rubrum; [7]),MIC90 (Trichophyton rubrum; [8]),MIC50 (Trichophyton tonsurans; [9]),MIC90 (Trichophyton tonsurans; [10]),MIC50 (Aspergillus sp.; [11]),MIC90 (Aspergillus sp.; [12]),"MIC50 ([2]; Microsporum, read-out: MIC50)","MIC90 ([2]; Microsporum, read-out: MIC90)",MIC50 (Trichophyton benhamiae; [13]),MIC90 (Trichophyton benhamiae; [14]),MIC50 (Epidermophyton floccosum; [15]),MIC90 (Epidermophyton floccosum; [16]),ED50 (Cavia porcellus [3]; [6]),ED50 (Cavia porcellus [4]; [6]),"MIC50 ([5]; Trichophyton, read-out: MIC50)","MIC90 ([5]; Trichophyton, read-out: MIC90)",further results
CCN1C(=O)N(c2ccc(N3CCN(c4ccc(OC[C@H]5CO[C@](Cn6cncn6)(c6ccc(F)cc6F)O5)cc4)CC3)cc2)C(=O)C(C)(C)C1=O,> 5 mg/kg,> 20 µg/mL,0.66 µg/mL,3.1 mg/kg,11.6 µg/mL,> 20 µg/mL,> 20 µg/mL,> 20 µg/mL,> 20 µg/mL,> 20 µg/mL,10 µg/mL,> 20 µg/mL,1 µg/mL,> 20 µg/mL,3.2 µg/mL,> 20 µg/mL,> 5 mg/kg,> 5 mg/kg,> 20 µg/mL,> 20 µg/mL,–
CCCn1c(=O)n(CC)c(=O)n(-c2ccc(N3CCN(c4ccc(OC[C@H]5CO[C@](Cn6cncn6)(c6ccc(F)cc6F)O5)cc4)CC3)cc2)c1=O,> 2.5 mg/kg,10 µg/mL,1 µg/mL,–,3.2 µg/mL,3.2 µg/mL,–,–,10 µg/mL,> 20 µg/mL,1 µg/mL,13 µg/mL,0.32 µg/mL,1 µg/mL,1 µg/mL,3.2 µg/mL,> 2.5 mg/kg,> 2.5 mg/kg,> 20 µg/mL,> 20 µg/mL,–
CN(C/C=C/C#CC(C)(C)C)Cc1cccc2ccccc12 [TERBINAFINE],10 mg/kg,20 µg/mL,20 µg/mL,2.5 mg/kg,0.01 µg/mL,0.0254 µg/mL,0.032 µg/mL,0.0524 µg/mL,0.32 µg/mL,1.66 µg/mL,0.032 µg/mL,0.032 µg/mL,0.01 µg/mL,0.01 µg/mL,0.032 µg/mL,0.093 µg/mL,10 mg/kg,10 mg/kg,0.01 µg/mL,0.032 µg/mL,–
CCN1C(=O)N(c2ccc(N3CCN(c4ccc(OC[C@@H]5CO[C@@](Cn6cncn6)(c6ccc(F)cc6F)O5)cc4)CC3)cc2)C(=O)C(C)(C)C1=O,2.35 mg/kg,> 20 µg/mL,0.32 µg/mL,> 2.5 mg/kg,11.6 µg/mL,> 20 µg/mL,> 20 µg/mL,> 20 µg/mL,> 20 µg/mL,> 20 µg/mL,3.2 µg/mL,> 20 µg/mL,1 µg/mL,> 20 µg/mL,1 µg/mL,1 µg/mL,3.28 mg/kg,1.18 mg/kg,> 20 µg/mL,> 20 µg/mL,–
CCC(C)n1ncn(-c2ccc(N3CCN(c4ccc(OC[C@H]5CO[C@](Cn6cncn6)(c6ccc(Cl)cc6Cl)O5)cc4)CC3)cc2)c1=O (some centres not stated) [ITRACONAZOLE],1.18 mg/kg,17 µg/mL,0.1 µg/mL,2.6 mg/kg,0.01 µg/mL,0.32 µg/mL,0.32 µg/mL,0.524 µg/mL,0.32 µg/mL,1.18 µg/mL,0.032 µg/mL,0.524 µg/mL,0.01 µg/mL,0.129 µg/mL,0.032 µg/mL,0.093 µg/mL,1.2 mg/kg,0.84 mg/kg,0.1 µg/mL,1 µg/mL,–
CCC1C(=O)N(CC)C(=O)N(c2ccc(N3CCN(c4ccc(OC[C@@H]5CO[C@@](Cn6cncn6)(c6ccc(F)cc6F)O5)cc4)CC3)cc2)C1=O (some centres not stated),1.94 mg/kg,> 20 µg/mL,0.32 µg/mL,2.86 mg/kg,3.2 µg/mL,> 20 µg/mL,> 20 µg/mL,> 20 µg/mL,> 20 µg/mL,> 20 µg/mL,1 µg/mL,> 20 µg/mL,1 µg/mL,> 20 µg/mL,1 µg/mL,3.2 µg/mL,1.94 mg/kg,1.18 mg/kg,> 20 µg/mL,> 20 µg/mL,–
CC(C)N1CCN(c2ccc(N3CCN(c4ccc(OC[C@H]5OC[C@](Cn6cncn6)(c6ccc(F)cc6F)O5)cc4)CC3)cc2)C1=O (stereo in doubt; 4c) [PRAMICONAZOLE],–,–,–,–,–,–,–,–,–,–,–,–,–,–,–,–,–,–,–,–,ED50 (Cavia porcellus [1]): <0.31 mg/kg; MIC50 (Candida): 0.1 µg/mL; ED50 (Mus musculus): <0.63 mg/kg; MIC50 (Trichophyton rubrum): 0.32 µg/mL; MIC90 (Trichophyton rubrum): 0.796 µg/mL; MIC50 (Trichophyton tonsurans): 0.32 µg/mL; MIC90 (Trichophyton tonsurans): 0.1 µg/mL; MIC50 (Aspergillus sp.): >20 µg/mL; MIC90 (Aspergillus sp.): >20 µg/mL; MIC50 [2]: 0.032 µg/mL; MIC90 [2]: 0.524 µg/mL; MIC50 (Trichophyton benhamiae): 0.01 µg/mL; MIC90 (Trichophyton benhamiae): 0.032 µg/mL; MIC50 (Epidermophyton floccosum): 0.32 µg/mL; MIC90 (Epidermophyton floccosum): 0.093 µg/mL; ED50 (Cavia porcellus [3]): <0.31 mg/kg; ED50 (Cavia porcellus [4]): <0.31 mg/kg; MIC50 [5]: 0.1 µg/mL; MIC90 [5]: 1.22 µg/mL
CC(C)N1CCN(c2ccc(N3CCN(c4ccc(OC[C@@H]5OC[C@@](Cn6cncn6)(c6ccc(F)cc6F)O5)cc4)CC3)cc2)C1=O,2.5 mg/kg,20 µg/mL,20 µg/mL,–,20 µg/mL,20 µg/mL,20 µg/mL,20 µg/mL,20 µg/mL,20 µg/mL,2.1 µg/mL,20 µg/mL,1 µg/mL,20 µg/mL,1 µg/mL,20 µg/mL,2.5 mg/kg,2.5 mg/kg,20 µg/mL,20 µg/mL,–
CCCn1c(=O)n(CC)c(=O)n(-c2ccc(N3CCN(c4ccc(OC[C@@H]5OC[C@@](Cn6cncn6)(c6ccc(F)cc6F)O5)cc4)CC3)cc2)c1=O,> 2.5 mg/kg,> 20 µg/mL,10 µg/mL,–,> 20 µg/mL,> 20 µg/mL,> 20 µg/mL,> 20 µg/mL,> 20 µg/mL,> 20 µg/mL,> 20 µg/mL,> 20 µg/mL,> 20 µg/mL,> 20 µg/mL,> 20 µg/mL,> 20 µg/mL,> 2.5 mg/kg,> 2.5 mg/kg,> 20 µg/mL,> 20 µg/mL,–
CCCn1c(=O)n(CC)c(=O)n(-c2ccc(N3CCN(c4ccc(OC[C@H]5OC[C@](Cn6cncn6)(c6ccc(F)cc6F)O5)cc4)CC3)cc2)c1=O,> 2.5 mg/kg,> 20 µg/mL,3.2 µg/mL,> 1.25 mg/kg,3.2 µg/mL,10 µg/mL,10 µg/mL,> 20 µg/mL,> 20 µg/mL,> 20 µg/mL,3.2 µg/mL,> 20 µg/mL,1 µg/mL,3.2 µg/mL,1 µg/mL,3.2 µg/mL,2.35 mg/kg,1.25 mg/kg,3.2 µg/mL,> 20 µg/mL,–
CCN1C(=O)N(c2ccc(N3CCN(c4ccc(OC[C@@H]5OC[C@@](Cn6cncn6)(c6ccc(F)cc6F)O5)cc4)CC3)cc2)C(=O)C(C)(C)C1=O,> 2.5 mg/kg,> 20 µg/mL,15 µg/mL,–,> 20 µg/mL,> 20 µg/mL,> 20 µg/mL,> 20 µg/mL,> 20 µg/mL,> 20 µg/mL,> 20 µg/mL,> 20 µg/mL,> 20 µg/mL,> 20 µg/mL,> 20 µg/mL,> 20 µg/mL,> 2.5 mg/kg,> 2.5 mg/kg,> 20 µg/mL,> 20 µg/mL,–
CCN1C(=O)N(c2ccc(N3CCN(c4ccc(OC[C@H]5OC[C@](Cn6cncn6)(c6ccc(F)cc6F)O5)cc4)CC3)cc2)C(=O)C(C)(C)C1=O,2.35 mg/kg,> 20 µg/mL,0.66 µg/mL,–,3.2 µg/mL,10 µg/mL,3.2 µg/mL,13 µg/mL,> 20 µg/mL,> 20 µg/mL,3.2 µg/mL,> 20 µg/mL,3.2 µg/mL,3.2 µg/mL,1 µg/mL,2.98 µg/mL,2.35 mg/kg,2.35 mg/kg,3.2 µg/mL,> 20 µg/mL,–
CC(C)N1CCN(c2ccc(N3CCN(c4ccc(OC[C@@H]5CO[C@@](Cn6cncn6)(c6ccc(F)cc6F)O5)cc4)CC3)cc2)C1=O,0.33 mg/kg,> 20 µg/mL,0.32 µg/mL,> 2.5 mg/kg,0.32 µg/mL,0.934 µg/mL,1 µg/mL,1 µg/mL,0.66 µg/mL,1.66 µg/mL,0.1 µg/mL,0.32 µg/mL,0.032 µg/mL,0.032 µg/mL,0.032 µg/mL,0.093 µg/mL,0.44 mg/kg,0.33 mg/kg,0.32 µg/mL,1 µg/mL,–
